31 compounds from patent US20090048269A1 (AstraZeneca AB, priority 2007, published 2009) can be followed below.

For this assay, the target named is T1, human ALK5 (Homo sapiens, UniProt P36897).
T1 sequence (P36897 162-503): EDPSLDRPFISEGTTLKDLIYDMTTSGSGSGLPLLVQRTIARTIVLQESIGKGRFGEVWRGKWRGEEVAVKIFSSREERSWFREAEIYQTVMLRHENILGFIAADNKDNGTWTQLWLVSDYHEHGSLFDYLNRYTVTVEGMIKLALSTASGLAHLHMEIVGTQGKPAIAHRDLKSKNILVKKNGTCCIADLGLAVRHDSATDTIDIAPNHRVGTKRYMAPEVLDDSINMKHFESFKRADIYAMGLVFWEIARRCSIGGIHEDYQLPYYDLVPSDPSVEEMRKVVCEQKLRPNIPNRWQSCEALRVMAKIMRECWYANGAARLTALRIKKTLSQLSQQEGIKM
Put plainly: ALK5 Enzyme Assay 2 (fluorescence polarisation probe displacement). The assay is classed as binding. More on the design: 6His tagged human ALK5 (residues162-503) was grown and purified from insect cells; 6His; made in house; host or cells: insect cells. The conditions noted are these: read-out: EAA2: activity (μM) using Enzyme Assay 2. Here is the method:
The ability of a compound to bind and inhibit ALK5 can be measured by its capacity to displace a probe molecule from recombinant ALK5 in an in vitro assay. Provided the probe molecule is derivatised with a fluorescent probe or is fluorescent itself, the binding affinity can be measured using Fluorescence Polarisation (FP). […] Assay measurements were performed in 50 mM HEPES pH7.4, 10 mM MgCl2, 1 mM DTT, 0.01% CHAPS in a final assay volume of 12 μl. Briefly 6 μl of ALK5 protein, final concentration of 3 μg/mL, was added to each well of a 384 well assay plate containing 12 nL of each concentration of test compound dissolved in DMSO. 6 μL of a solution containing an ALK5 FP probe ((2Z)-3-(6-{4-[2-({4-[(6-chloro[1,3]dioxolo[4,5-b]pyridin-7-yl)amino]-5-(1-methylethoxy)quinazolin-7-yl}oxy)ethyl]piperazin-1-yl}-6-oxohexyl)-2-[(2E,4E)-5-(3-ethyl-1,1-dimethyl-6,8-disulfo-1H-benzo[e]indolium-2-yl)penta-2,4-dien-1-ylidene]-1,1-dimethyl-6-sulfo-2,3-dihydro-1H-benzo[e]indole-8-sulfonate), final concentration 50 nM, and ATP, final concentration 1 μM.

In the case of `Cc1ccc(Oc2ccnc(Nc3ccc(S(N)(=O)=O)cc3)c2)c(-c2ccccc2)n1` [Example 149, 4-{[4-(6-Methyl-2-phenylpyridin-3-yl)oxypyridin-2-yl]amino}-benzenesulfonamide], the IC50 was found to be 0.014 µM. The result for `Cc1ccc(Oc2ccnc(Nc3ccc(CC#N)cc3)c2)c(C)n1` [Example 91, 2-(4-{[4-(2,6-Dimethylpyridin-3-yl)oxypyridin-2-yl]amino}phenyl)-acetonitrile] reads 0.0286 µM. In the case of `Cc1ccc(Oc2ccnc(Nc3ccc(C(=O)NCCN4CCS(=O)(=O)CC4)cc3)c2)c(C)n1` [Example 215, 4-{[4-(2,6-Dimethylpyridin-3-yl)oxypyridin-2-yl]amino}-N-[2-(1,1-dioxo-1,4-thiazinan-4-yl)ethyl]benzamide], the IC50 was 0.0362 µM.

In the case of `Cc1ccc(Oc2ccnc(Nc3ccc(S(=O)(=O)NC4CCC4)cc3)c2)c(C)n1` [Example 113, N-Cyclobutyl-4-{[4-(2,6-dimethylpyridin-3-yl)oxypyridin-2-yl]-amino}benzenesulfonamide], the IC50 was determined as 0.288 µM. The result for `Cc1ccc(Oc2ccnc(Nc3cccc(C#N)c3)c2)c(C)n1` [Example 125, 3-{[4-(2,6-Dimethylpyridin-3-yl)oxypyridin-2-yl]amino}-benzonitrile] reads 0.192 µM; that for `Cc1ccc(Oc2ccnc(Nc3ccc(S(=O)(=O)Nc4ccccn4)cc3)c2)c(C)n1` [Example 106, 4-[4-(2,6-Dimethylpyridin-3-yloxy)pyridin-2-ylamino]-N-(pyridin-2-yl)benzenesulfonamide], 0.527 µM; that for `Cc1ccc(Oc2ccnc(Nc3ccccc3)c2)c(C(=O)NCC2CC2)n1` [Example 93, 3-(2-Anilinopyridin-4-yl)oxy-N-(cyclopropylmethyl)-6-methyl-pyridine-2-carboxamide], 0.154 µM. For `Cc1ccc(Oc2ccnc(Nc3cccc(C(=O)N(C)C)c3)c2)c(C)n1` [Example 62, 3-{[4-(2,6-Dimethylpyridin-3-yl)oxypyridin-2-yl]amino}-N,N-dimethylbenzamide], the IC50 is 0.0535 µM. The result for `Cc1ccc(Oc2ccnc(Nc3ccc(CC#N)cc3)c2)c(-c2ccccc2)n1` [Example 148, 2-(4-{[4-(6-Methyl-2-phenylpyridin-3-yl)oxypyridin-2-yl]-amino}phenyl)acetonitrile] reads 0.0339 µM; that for `COc1cc(Nc2cc(Oc3ccc(C)nc3-c3ccco3)ccn2)cc(OC)c1OC` [Example 165, 4-[2-(Furan-2-yl)-6-methylpyridin-3-yloxy]-N-(3,4,5-trimethoxy-phenyl)pyridin-2-amine], 0.0126 µM; that for `Cc1cc(Oc2ccnc(Nc3cccc(C(=O)N4CCCCCC4)c3)c2)c(-c2ccccn2)nc1C` [Example 102, Azepan-1-yl-(3-{[4-(5,6-dimethyl-2-pyridin-2-ylpyridin-3-yl)-oxypyridin-2-yl]amino}phenyl)methanone], 0.0113 µM. The result for `Cc1cc(Oc2ccnc(Nc3cccc(C(=O)NCc4ccccn4)c3)c2)c(-c2ccccn2)nc1C` [Example 99, 3-{[4-(5,6-Dimethyl-2-pyridin-2-ylpyridin-3-yl)oxypyridin-2-yl]-amino}-N-(pyridin-2-ylmethyl)benzamide] reads 0.00734 µM; that for `C#CC(C)(C)NC(=O)c1cccc(Nc2cc(Oc3cc(C)c(C)nc3-c3ccccn3)ccn2)c1` [Example 103, 3-{[4-(5,6-Dimethyl-2-pyridin-2-ylpyridin-3-yl)oxypyridin-2-yl]-amino}-N-(2-methylbut-3-yn-2-yl)benzamide], 0.0375 µM.

Consider `COCCNS(=O)(=O)c1ccc(Nc2cc(Oc3ccc(C)nc3C)ccn2)cc1` [Example 110, 4-{[4-(2,6-Dimethylpyridin-3-yl)oxypyridin-2-yl]amino}-N-(2-methoxyethyl)benzenesulfonamide], for which the IC50 came out at 0.203 µM.

Turning to `Cc1ccc(Oc2ccnc(Nc3cccc(CN4CCN(C(=O)CC(N)=O)CC4)c3)c2)c(C)n1` [Example 187, 3-{4-[(3-{[4-(2,6-Dimethylpyridin-3-yl)oxypyridin-2-yl]amino}phenyl)methyl]piperazin-1-yl}-3-oxopropanamide], the IC50 worked out at 0.0232 µM. The same measure for `Cc1ccc(Oc2ccnc(Nc3cccc(C(=O)N4CC[C@@H](S(C)(=O)=O)C4)c3)c2)c(C)n1` (single isomer, unassigned) [Example 139]: 0.0495 µM; for `Cc1ccc(Oc2ccnc(Nc3cccc(C(=O)N4CCN(CC(N)=O)CC4)c3)c2)c(C)n1` [Example 69, 2-[4-(3-{[4-(2,6-Dimethylpyridin-3-yl)oxypyridin-2-yl]amino}-benzoyl)piperazin-1-yl]acetamide]: 0.0827 µM. Turning to `Cc1cc(Oc2ccnc(Nc3ccc(OCCNC(=O)OC(C)(C)C)cc3)c2)c(-c2ccccn2)nc1C` [Example 195, tert-Butyl N-[2-(4-{[4-(5,6-dimethyl-2-pyridin-2-ylpyridin-3-yl)-oxypyridin-2-yl]amino}phenoxy)ethyl]carbamate], the IC50 stood at 0.0121 µM.

On to `Cc1cc(Oc2ccnc(Nc3ccc(C(=O)NCCCNC(=O)OC(C)(C)C)cc3)c2)c(-c2ccccn2)nc1C` [Example 197, tert-Butyl N-{3-[(4-{[4-(5,6-dimethyl-2-pyridin-2-ylpyridin-3-yl)-oxypyridin-2-yl]amino}benzoyl)amino]propyl}carbamate], for which the IC50 worked out at 0.0061 µM.

On to `Cc1ccc(Oc2ccnc(Nc3ccc(S(=O)(=O)NCCN4CCOCC4)cc3)c2)c(C)n1` [Example 131, 4-[4-(2,6-Dimethylpyridin-3-yloxy)pyridin-2-ylamino]-N-(2-morpholinoethyl)benzenesulfonamide], for which the IC50 amounted to 0.256 µM. In the case of `Cc1ccc(Oc2ccnc(Nc3ccc(C(=O)NCCN4CCCC4=O)cc3)c2)c(C)n1` [Example 141, 4-{[4-(2,6-dimethylpyridin-3-yl)oxypyridin-2-yl]amino}-N-[2-(2-oxopyrrolidin-1-yl)ethyl]benzamide], the IC50 turned out to be 0.0693 µM. The same measure for `Cc1ccc(Oc2ccnc(Nc3cccc(S(=O)(=O)Nc4ccccc4)c3)c2)c(C)n1` [Example 111, 3-{[4-(2,6-Dimethylpyridin-3-yl)oxypyridin-2-yl]amino}-N-phenylbenzenesulfonamide]: 0.621 µM; for `Cc1ccc(Oc2ccnc(Nc3cccc(CN4CCNCC4)c3)c2)c(C)n1` [Example 176, 4-(2,6-Dimethylpyridin-3-yl)oxy-N-[3-(Piperazin-1-ylmethyl)-phenyl]pyridin-2-amine]: 0.00829 µM.

With “3-{[4-(2,6-Dimethylpyridin-3-yl)oxypyridin-2-yl]amino}-N-(1-methylpiperidin-4-yl)benzamide [Example 70]”, the IC50 is 0.0323 µM. The result for `Cc1ccc(Oc2ccnc(Nc3ccc(C(=O)NC4CCN(C)CC4)cc3)c2)c(C)n1` [Example 130, 4-[4-(2,6-Dimethylpyridin-3-yloxy)pyridin-2-ylamino]-N-(1-methylpiperidin-4-yl)benzamide] reads 0.0189 µM. The result for `Cc1ccc(Oc2ccnc(Nc3ccccn3)c2)c(-c2ccccn2)n1` [Example 145, 4-(6-Methyl-2-pyridin-2-ylpyridin-3-yl)oxy-N-pyridin-2-yl-pyridin-2-amine] reads 0.00825 µM. The result for `Cc1ccc(Oc2ccnc(Nc3cccc(CN4CCN(CCN5CCNC5=O)CC4)c3)c2)c(C)n1` [Example 192, 1-(2-{4-[(3-{[4-(2,6-Dimethylpyridin-3-yl)oxypyridin-2-yl]-amino}phenyl)methyl]piperazin-1-yl}ethyl)imidazolidin-2-one] reads 0.0155 µM; that for `CC(=O)Nc1ccc(Nc2cc(Oc3cc(C)c(C)nc3-c3ccccn3)ccn2)cc1` [Example 86, N-(4-{[4-(5,6-Dimethyl-2-pyridin-2-ylpyridin-3-yl)oxypyridin-2-yl]-amino}phenyl)acetamide], 0.00842 µM; that for `Cc1ccc(Oc2ccnc(Nc3cccc(CN4CCN(C(=O)CCN)CC4)c3)c2)c(C)n1` [Example 189, 3-Amino-1-{4-[(3-{[4-(2,6-dimethylpyridin-3-yl)oxypyridin-2-yl]-amino}phenyl)methyl]piperazin-1-yl}propan-1-one], 0.0262 µM. `Cc1ccc(Oc2ccnc(Nc3cccc(CN4CCN(C(=O)CCNC(=O)OC(C)(C)C)CC4)c3)c2)c(C)n1` [Example 208, tert-Butyl N-(3-{4-[(3-{[4-(2,6-dimethylpyridin-3-yl)oxypyridin-2-yl]amino}phenyl)methyl]piperazin-1-yl}-3-oxopropyl)carbamate]: the IC50 came out at 0.0204 µM.

Take `Cc1ccc(Oc2ccnc(Nc3ccc(S(=O)(=O)N4CCCCC4)cc3)c2)c(C)n1` [Example 115, 4-(2,6-Dimethylpyridin-3-yl)oxy-N-(4-piperidin-1-ylsulfonyl-phenyl)pyridin-2-amine]: the IC50 turned out to be 5.41 µM.
